Source: patent US9850203B2, “Autotaxin inhibitor compounds” (PharmAkea, Inc., priority 2013, dated 2017)

Biological target: human autotaxin (ATX) (Homo sapiens (Human), UniProt Q13822)
Experiment: Human Autotaxin Assay
Assay type: biochemical
Settings: concentrated conditioned media from Hep3B cells; LPC substrate, choline release
Protocol: ATX activity is assayed in concentrated conditioned media from Hep3B human hepatocellular carcinoma cells by measuring the amount of choline released from the substrate, lysophosphatidylcholine (LPC) as it is cleaved to LPA. Conditioned media is collected from confluent Hep3B cells and concentrated 20-fold using Centriprep-30 filter devices (Millipore). To assay for autotaxin inhibition, 10-20 μL of the concentrated conditioned media is incubated with 2.5 μL of a test compound in DMSO and 72.5-82.5 μL lyso-PLD buffer (100 mM Tris pH 9, 500 mM NaCl, 5 mM MgCl2, 5 mM CaCl2, 0.05% Triton X-100 in the presence or absence of 0.2% fatty-acid-free human serum albumin) for 15 min at 37° C. After the 15 min incubation, 5 uL of 2 mM LPC (14:0; Avanti Polar Lipids Cat#855575C) diluted in lyso-PLD buffer is added for a final concentration of 100 uM and the incubation continues for 1.5-3 hours at 37° C.

IC50, ≤ 500 nM:
Cc1c(Sc2cccc(C(=O)O)c2)c2ccc(Cl)c(F)c2n1CC(=O)N1CCC(O)(C(F)(F)F)C1 (centres unmarked) [Compound 1-37, 3-((6-Chloro-7-fluoro-1-(2-(3-hydroxy-3-(trifluoromethyl)pyrrolidin-1-yl)-2-oxoethyl)-2-methyl-1H-indol-3-yl)thio)benzoic acid]
Cc1c(Sc2cccc(C(=O)O)c2)c2ccc(Cl)c(F)c2n1CC(=O)N1CC2(CCCC2)c2ccccc21 [Compound 1-39, 3-((6-Chloro-7-fluoro-2-methyl-1-(2-oxo-2-(spiro[cyclopentane-1,3′-indolin]-1′-yl)ethyl)-1H-indol-3-yl)thio)benzoic acid]
Cc1c(Sc2cccc(C(=O)O)c2)c2ccc(Cl)c(F)c2n1CC(=O)N1CCC2(CC1)CC(=O)N2 [Compound 1-41, 3-((6-Chloro-7-fluoro-2-methyl-1-(2-oxo-2-(2-oxo-1,7-diazaspiro[3.5]nonan-7-yl)ethyl)-1H-indol-3-yl)thio)benzoic acid]
Cc1c(Sc2cccc(C(=O)O)c2)c2ccc(Cl)c(F)c2n1CC(=O)N1CC(N2CCC(F)(F)C2)C1 [Compound 1-42, 3-((6-Chloro-1-(2-(3-(3,3-difluoropyrrolidin-1-yl)azetidin-1-yl)-2-oxoethyl)-7-fluoro-2-methyl-1H-indol-3-yl)thio)benzoic acid]
Cc1c(Sc2cccc(C(=O)O)c2)c2ccc(Cl)c(F)c2n1CC(=O)N1CCC(C)(C)CC1 [Compound 1-44, 3-((6-Chloro-1-(2-(4,4-dimethylpiperidin-1-yl)-2-oxoethyl)-7-fluoro-2-methyl-1H-indol-3-yl)thio)benzoic acid]
Cc1c(Sc2cccc(C(=O)O)c2)c2ccc(Cl)c(F)c2n1CC(=O)N1CCC2(CC1)CNC(=O)C2 [Compound 1-45, 3-((6-Chloro-7-fluoro-2-methyl-1-(2-oxo-2-(3-oxo-2,8-diazaspiro[4.5]decan-8-yl)ethyl)-1H-indol-3-yl)thio)benzoic acid]
Cc1c(Sc2cccc(C(=O)O)c2)c2ccc(Cl)c(F)c2n1CC(=O)N1CCC2(CCOCC2)C1 [Compound 1-46, 3-((6-Chloro-7-fluoro-2-methyl-1-(2-oxo-2-(8-oxa-2-azaspiro[4.5]decan-2-yl)ethyl)-1H-indol-3-yl)thio)benzoic acid]
Cc1c(Sc2cccc(C(=O)O)c2)c2ccc(Cl)c(F)c2n1CC(=O)N1CC(N2CCS(=O)(=O)CC2)C1 [Compound 1-48, 3-((6-Chloro-1-(2-(3-(1,1-dioxidothiomorpholino)azetidin-1-yl)-2-oxoethyl)-7-fluoro-2-methyl-1H-indol-3-yl)thio)benzoic acid]
Cc1c(Sc2cccc(C(=O)O)c2)c2ccc(Cl)c(F)c2n1CC(=O)N1CC2(CNC(=O)C2)C1 [Compound 1-49, 3-((6-Chloro-7-fluoro-2-methyl-1-(2-oxo-2-(7-oxo-2,6-diazaspiro[3,4]octan-2-yl)ethyl)-1H-indol-3-yl)thio)benzoic acid]
Cc1c(Sc2cccc(C(=O)O)c2)c2ccc(Cl)c(F)c2n1CC(=O)N1CC2C(C1)C2C(N)=O [Compound 1-51, 3-((1-(2-((1R,5S,6R)-6-Carbamoyl-3-azabicyclo[3.1.0]hexan-3-yl)-2-oxoethyl)-6-chloro-7-fluoro-2-methyl-1H-indol-3-yl)thio)benzoic acid]
Cc1c(Sc2cccc(C(=O)O)c2)c2ccc(Cl)c(F)c2n1CC(=O)N1CC(C)(O)C1 [Compound 1-52, 3-((6-Chloro-7-fluoro-1-(2-(3-hydroxy-3-methylazetidin-1-yl)-2-oxoethyl)-2-methyl-1H-indol-3-yl)thio)benzoic acid]
Cc1c(Sc2cccc(C(=O)O)c2)c2ccc(Cl)c(F)c2n1CC(=O)N1CCC2(CCNC(=O)CC2)CC1 [Compound 1-53, 3-((6-Chloro-7-fluoro-2-methyl-1-(2-oxo-2-(10-oxo-3,9-diazaspiro[5.6]dodecan-3-yl)ethyl)-1H-indol-3-yl)thio)benzoic acid]
COc1ccc2c(c1)CCN2C(=O)Cn1c(C)c(Sc2cccc(C(=O)O)c2)c2ccc(Cl)c(F)c21 [Compound 1-58, 3-((6-Chloro-1-(2-(5-methoxyindolin-1-yl)-2-oxoethyl)-7-fluoro-2-methyl-1H-indol-3-yl)thio)benzoic acid]
Cc1c(Sc2cccc(C(=O)O)c2)c2ccc(Cl)c(F)c2n1CC(=O)N1CCC(CCn2cccn2)CC1 [Compound 1-61, 3-((1-(2-(4-(2-(1H-Pyrazol-1-yl)ethyl)piperidin-1-yl)-2-oxoethyl)-6-chloro-7-fluoro-2-methyl-1H-indol-3-yl)thio)benzoic acid]
Cc1c(Sc2cccc(C(=O)O)c2)c2ccc(Cl)c(F)c2n1CC(=O)N1CCC(Cc2ccncc2)CC1 [Compound 1-63, 3-((6-Chloro-7-fluoro-2-methyl-1-(2-oxo-2-(4-(pyridin-4-ylmethyl)piperidin-1-yl)ethyl)-1H-indol-3-yl)thio)benzoic acid]
Cc1c(Sc2cccc(C(=O)O)c2)c2ccc(Cl)c(F)c2n1CC(=O)N1CCCC2(CNC(=O)O2)C1 (centres unmarked) [Compound 1-69, 3-((6-Chloro-7-fluoro-2-methyl-1-(2-oxo-2-(2-oxo-1-oxa-3,7-diazaspiro[4.5]decan-7-yl)ethyl)-1H-indol-3-yl)thio)benzoic acid]
Cc1c(Sc2cccc(C(=O)O)c2)c2ccc(Cl)c(F)c2n1CC(=O)N1CCc2c(F)cc(F)cc21 [Compound 1-70, 3-((6-Chloro-1-(2-(4,6-difluoroindolin-1-yl)-2-oxoethyl)-7-fluoro-2-methyl-1H-indol-3-yl)thio)benzoic acid]
Cc1c(Sc2cccc(C(=O)O)c2)c2ccc(Cl)c(F)c2n1CC(=O)N1CCc2cc(Cl)ccc21 [Compound 1-71, 3-((6-Chloro-1-(2-(5-chloroindolin-1-yl)-2-oxoethyl)-7-fluoro-2-methyl-1H-indol-3-yl)thio)benzoic acid]
Cc1c(Sc2cccc(C(=O)O)c2)c2ccc(Cl)c(F)c2n1CC(=O)N1CCc2ccc(Cl)cc21 [Compound 1-73, 3-((6-Chloro-1-(2-(6-chloroindolin-1-yl)-2-oxoethyl)-7-fluoro-2-methyl-1H-indol-3-yl)thio)benzoic acid]
CCCC1CCN(C(=O)Cn2c(C)c(Sc3cccc(C(=O)O)c3)c3ccc(Cl)c(F)c32)C1 (centres unmarked) [Compound 1-77, 3-((6-Chloro-7-fluoro-2-methyl-1-(2-oxo-2-(3-propylpyrrolidin-1-yl)ethyl)-1H-indol-3-yl)thio)benzoic acid]
Cc1c(Sc2cccc(C(=O)O)c2)c2ccc(Cl)c(F)c2n1CC(=O)N1CCc2ccccc2C1 [Compound 1-79, 3-((6-Chloro-1-(2-(3,4-dihydroisoquinolin-2(1H)-yl)-2-oxoethyl)-7-fluoro-2-methyl-1H-indol-3-yl)thio)benzoic acid]

IC50, 500 to 3000 nM:
Cc1c(Sc2cccc(C(=O)O)c2)c2ccc(Cl)c(F)c2n1CC(=O)N1CCC2(CC1)CC2C(=O)N1CCCC1 (centres unmarked) [Compound 1-40, 3-((6-Chloro-7-fluoro-2-methyl-1-(2-oxo-2-(1-(pyrrolidine-1-carbonyl)-6-azaspiro[2.5]octan-6-yl)ethyl)-1H-indol-3-yl)thio)benzoic acid]
Cc1c(Sc2cccc(C(=O)O)c2)c2ccc(Cl)c(F)c2n1CC(=O)N1CCCC1=O [Compound 1-59, 3-((6-Chloro-7-fluoro-2-methyl-1-(2-oxo-2-(2-oxopyrrolidin-1-yl)ethyl)-1H-indol-3-yl)thio)benzoic acid]
Cc1c(Sc2cccc(C(=O)O)c2)c2ccc(Cl)c(F)c2n1CC(=O)N1CCC(Cc2ccc(F)cc2)CC1 [Compound 1-60, 3-((6-Chloro-7-fluoro-1-(2-(4-(4-fluorobenzyl)piperidin-1-yl)-2-oxoethyl)-2-methyl-1H-indol-3-yl)thio)benzoic acid]
Cc1c(Sc2cccc(C(=O)O)c2)c2ccc(Cl)c(F)c2n1CC(=O)N1CCC(CCc2ccccc2)CC1 [Compound 1-62, 3-((6-Chloro-7-fluoro-2-methyl-1-(2-oxo-2-(4-phenethylpiperidin-1-yl)ethyl)-1H-indol-3-yl)thio)benzoic acid]
Cc1c(Sc2cccc(C(=O)O)c2)c2ccc(Cl)c(F)c2n1CC(=O)N1CCC2(CCN(Cc3ccccc3)CC2)C1 [Compound 1-67, 3-((1-(2-(8-Benzyl-2,8-diazaspiro[4.5]decan-2-yl)-2-oxoethyl)-6-chloro-7-fluoro-2-methyl-1H-indol-3-yl)thio)benzoic acid]
Cc1c(Sc2cccc(C(=O)O)c2)c2ccc(Cl)c(F)c2n1CC(=O)N1CCc2cccnc21 [Compound 1-72, 3-((6-Chloro-1-(2-(2,3-dihydro-1H-pyrrolo[2,3-b]pyridin-1-yl)-2-oxoethyl)-7-fluoro-2-methyl-1H-indol-3-yl)thio)benzoic acid]
Cc1c(Sc2cccc(C(=O)O)c2)c2ccc(Cl)c(F)c2n1CC(=O)N1CCC(CCc2ccccc2)C1 (centres unmarked) [Compound 1-76, 3-((6-Chloro-7-fluoro-2-methyl-1-(2-oxo-2-(3-phenethylpyrrolidin-1-yl)ethyl)-1H-indol-3-yl)thio)benzoic acid]
Cc1c(Sc2cccc(C(=O)O)c2)c2ccc(Cl)c(F)c2n1CC(=O)N1CCC(Cc2ccc(C(F)(F)F)cc2)C1 (centres unmarked) [Compound 1-78, 3-((6-Chloro-7-fluoro-2-methyl-1-(2-oxo-2-(3-(4-(trifluoromethyl)benzyl)pyrrolidin-1-yl)ethyl)-1H-indol-3-yl)thio)benzoic acid]
